Measurements published in patent US10918645B2 (LIFEARC, priority 2016, dated 2021).

Tests used:
Conditions in all cases: 1 μM inhibitor concentration
MKK1 = MKK1 (Homo sapiens (Human), UniProt Q02750); experiment: MKK1 kinase selectivity assay; type: biochemical
Procedure: After incubating at room temperature for 30 min, 5 μl from the first reaction is pipetted into 20 μl of the second reaction mix containing (final concentration) 25 mM Tris pH 7.5, 0.1 mM EGTA, 0.1 mM Na3VO4, 0.66 mg/ml myelin basic protein (MBP), 10 mM magnesium acetate and 0.05 mM [33P-g-ATP] (500-1000 cpm/pmole) and incubated for 30 min at room temperature. Assays are stopped by addition of 5 μl of 0.5 M (3%) orthophosphoric acid and then harvested onto P81 Unifilter plates with a wash buffer of 50 mM orthophosphoric acid.

S6K1 = S6K1 (Homo sapiens (Human), UniProt P23443); experiment: S6K1 kinase selectivity assay; type: biochemical
Procedure: S6K1/P70 S6K (5-20 mU diluted in 20 mM MOPS pH 7.5, 1 mM EDTA, 0.01% Brij35, 5% glycerol, 0.1% b-mercaptoethanol, 1 mg/ml BSA) is assayed against substrate peptide ([…]) in a final volume of 25.5 μl containing 8 mM MOPS pH 7.0, 0.2 mM EDTA, 0.1 mM substrate peptide, 10 mM magnesium acetate and 0.02 mM [33P-g-ATP] (50-1000 cpm/pmole) and incubated for 30 min at room temperature. Assays are stopped by addition of 5 μl of 0.5 M (3%) orthophosphoric acid and then harvested onto P81 Unifilter plates with a wash buffer of 50 mM orthophosphoric acid.

PKA = PKA (Homo sapiens (Human), UniProt P17612); experiment: PKA kinase selectivity assay; type: biochemical
Procedure: PKA (5-20 mU diluted in 20 mM MOPS pH 7.5, 1 mM EDTA, 0.01% Brij35, 0.1% b-mercaptoethanol, 1 mg/ml BSA) is assayed against Kemptide (LRRASLG) in a final volume of 25.5 μl containing 8 mM MOPS pH 7.5, 0.2 mM EDTA, 30 μM substrate peptide, 10 mM magnesium acetate and 0.005 mM [33P-g-ATP] (50-1000 cpm/pmole) and incubated for 30 min at room temperature. Assays are stopped by addition of 5 μl of 0.5 M (3%) orthophosphoric acid and then harvested onto P81 Unifilter plates with a wash buffer of 50 mM orthophosphoric acid.

SmMLCK = SmMLCK (Homo sapiens (Human), UniProt Q15746); experiment: SmMLCK kinase selectivity assay; type: biochemical
Procedure: 5-20 mU of smMLCK (diluted in 50 mM Hepes (pH 7.5), 0.1 mM EGTA, 1 mg/ml BSA, 0.1%, b-Mercaptoethanol) is assayed against substrate peptide ([…]) in a final volume of 25.5 μl containing 50 mM Hepes (pH 7.5), 0.1 mM EGTA, 5 mM CaCl2, […] Calmodulin, 300 μM substrate peptide, 10 mM magnesium acetate and 0.05 mM [33P-g-ATP](500-1000 cpm/pmole) and incubated for 30 mins at room temperature. Assays are stopped by addition of 5 μl of 0.5M (3%) orthophosphoric acid. Assays are harvested onto P81 Unifilter plates using a wash buffer of 50 mM orthophosphoric acid.

AuroraA = AuroraA (Homo sapiens (Human), UniProt O14965); experiment: AuroraA kinase selectivity assay; type: biochemical
Procedure: Aurora A (5-20 mU diluted in 50 mM Tris pH 7.5, 0.1 mM EGTA, 0.1% β-mercaptoethanol, 1 mg/ml BSA) is assayed against […] in a final volume of […] containing 50 mM Tris pH 7.5, 0.1 mM EGTA, 0.3 mM […] 10 mM magnesium acetate and 0.005 mM [33P-γ-ATP](50-1000 cpm/pmole) and incubated for 30 min at room temperature. Assays are stopped by addition of 5 μl of 0.5 M (3%) orthophosphoric acid and then harvested onto P81 Unifilter plates with a wash buffer of 50 mM orthophosphoric acid.

AMPK(hum) = experiment: AMPK kinase selectivity assay; type: biochemical, human
Procedure: AMPK (5-20 mU diluted in 50 mM Hepes pH 7.5, 1 mM DTT, 0.02% Brij35) is assayed against SAMS substrate peptide ([…]) in a final volume of 25.5 μl containing 50 mM Hepes pH 7.5, 1 mM DTT, 0.02% Brij35, 0.4 mM SAMS peptide, 0.196 mM AMP, 10 mM magnesium acetate and 0.05 mM [33P-g-ATP] (50-1000 cpm/pmole) and incubated for 30 min at room temperature. Assays are stopped by addition of 5 μl of 0.5 M (3%) orthophosphoric acid and then harvested onto P81 Unifilter plates with a wash buffer of 50 mM orthophosphoric acid.

MELK = MELK (Homo sapiens (Human), UniProt Q14680); experiment: MELK kinase selectivity assay; type: biochemical
Procedure: (§1) MELK (5-20 mU diluted in 50 mM Tris pH 7.5, 0.1 mM EGTA, 0.1% b-mercaptoethanol, 1 mg/ml BSA) is assayed against a substrate peptide ([…]) in a final volume of 25.5 μl containing 50 mM Tris pH 7.5, 0.05% b-mercaptoethanol, 200 μM substrate peptide, 10 mM magnesium acetate and 0.05 mM [33P-g-ATP] (50-1000 cpm/pmole) and incubated for 30 min at room temperature. Assays are stopped by addition of 5 μl of 0.5 M (3%) orthophosphoric acid and then harvested onto P81 Unifilter plates with a wash buffer of 50 mM orthophosphoric acid.

PIM1 = PIM1 (Homo sapiens (Human), UniProt P11309); experiment: PIM1 kinase selectivity assay; type: biochemical
Procedure: as §1, with “PIM1 (5-20” for “MELK (5-20”, “b-mercaptoethanol, 300” for “b-mercaptoethanol, 200”, “and 0.02” for “and 0.05”

EPH-A2 = EPH-A2 (Homo sapiens (Human), UniProt P29317); experiment: EPH-A2 kinase selectivity assay; type: biochemical
Procedure: EPH-A2 (5-20 mU diluted in 50 mM Tris pH 7.5, 0.1 mM EGTA, 1 mg/ml BSA) is assayed against a substrate peptide (Poly Glut Tyr) in a final volume of 25.5 μl containing 50 mM Tris pH 7.5, 0.1 mg/ml substrate peptide, 10 mM magnesium acetate and 0.05 mM [33P-g-ATP] (50-1000 cpm/pmole) and incubated for 30 min at room temperature. Assays are stopped by addition of 5 μl of 0.5 M (3%) orthophosphoric acid and then harvested onto P81 Unifilter plates with a wash buffer of 50 mM orthophosphoric acid.

Sequence of MKK1 (Q02750 whole entry, species assumed): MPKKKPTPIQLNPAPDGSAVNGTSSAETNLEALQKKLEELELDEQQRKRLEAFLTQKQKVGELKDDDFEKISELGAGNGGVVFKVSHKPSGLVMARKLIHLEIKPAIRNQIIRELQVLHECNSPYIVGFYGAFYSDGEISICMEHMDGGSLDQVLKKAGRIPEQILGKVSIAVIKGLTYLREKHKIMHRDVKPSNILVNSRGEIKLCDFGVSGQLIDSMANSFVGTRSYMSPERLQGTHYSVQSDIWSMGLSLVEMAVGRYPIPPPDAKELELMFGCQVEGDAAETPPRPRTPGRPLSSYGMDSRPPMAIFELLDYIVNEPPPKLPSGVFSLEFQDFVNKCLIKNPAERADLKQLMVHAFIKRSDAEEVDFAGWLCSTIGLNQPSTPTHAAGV
Sequence of EPH-A2 (P29317 24-976, species assumed): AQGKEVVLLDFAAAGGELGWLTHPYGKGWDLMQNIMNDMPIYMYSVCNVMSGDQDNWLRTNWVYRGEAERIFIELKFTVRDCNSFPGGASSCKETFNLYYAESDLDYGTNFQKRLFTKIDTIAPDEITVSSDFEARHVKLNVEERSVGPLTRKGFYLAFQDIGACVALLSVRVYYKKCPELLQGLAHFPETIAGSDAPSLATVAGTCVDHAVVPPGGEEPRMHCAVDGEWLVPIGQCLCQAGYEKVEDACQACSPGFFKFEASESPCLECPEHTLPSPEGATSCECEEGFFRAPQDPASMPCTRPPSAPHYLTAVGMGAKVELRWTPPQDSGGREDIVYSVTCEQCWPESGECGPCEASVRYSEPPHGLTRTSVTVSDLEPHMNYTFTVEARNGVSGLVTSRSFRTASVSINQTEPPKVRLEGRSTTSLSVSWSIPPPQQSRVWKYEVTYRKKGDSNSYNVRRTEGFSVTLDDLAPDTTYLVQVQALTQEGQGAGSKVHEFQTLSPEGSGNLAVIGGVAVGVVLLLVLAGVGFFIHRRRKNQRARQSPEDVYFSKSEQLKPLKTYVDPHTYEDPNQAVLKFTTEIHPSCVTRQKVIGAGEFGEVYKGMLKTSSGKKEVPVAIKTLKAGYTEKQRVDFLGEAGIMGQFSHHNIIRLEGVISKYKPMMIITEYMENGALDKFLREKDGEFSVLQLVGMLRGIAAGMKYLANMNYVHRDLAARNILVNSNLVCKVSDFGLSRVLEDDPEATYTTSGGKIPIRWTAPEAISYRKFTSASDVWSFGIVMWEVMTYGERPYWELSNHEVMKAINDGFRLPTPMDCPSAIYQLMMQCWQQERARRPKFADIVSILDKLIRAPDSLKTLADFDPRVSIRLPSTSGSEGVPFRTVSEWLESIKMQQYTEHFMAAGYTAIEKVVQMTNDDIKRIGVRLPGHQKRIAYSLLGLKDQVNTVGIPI
Sequence of MELK (Q14680 whole entry, species assumed): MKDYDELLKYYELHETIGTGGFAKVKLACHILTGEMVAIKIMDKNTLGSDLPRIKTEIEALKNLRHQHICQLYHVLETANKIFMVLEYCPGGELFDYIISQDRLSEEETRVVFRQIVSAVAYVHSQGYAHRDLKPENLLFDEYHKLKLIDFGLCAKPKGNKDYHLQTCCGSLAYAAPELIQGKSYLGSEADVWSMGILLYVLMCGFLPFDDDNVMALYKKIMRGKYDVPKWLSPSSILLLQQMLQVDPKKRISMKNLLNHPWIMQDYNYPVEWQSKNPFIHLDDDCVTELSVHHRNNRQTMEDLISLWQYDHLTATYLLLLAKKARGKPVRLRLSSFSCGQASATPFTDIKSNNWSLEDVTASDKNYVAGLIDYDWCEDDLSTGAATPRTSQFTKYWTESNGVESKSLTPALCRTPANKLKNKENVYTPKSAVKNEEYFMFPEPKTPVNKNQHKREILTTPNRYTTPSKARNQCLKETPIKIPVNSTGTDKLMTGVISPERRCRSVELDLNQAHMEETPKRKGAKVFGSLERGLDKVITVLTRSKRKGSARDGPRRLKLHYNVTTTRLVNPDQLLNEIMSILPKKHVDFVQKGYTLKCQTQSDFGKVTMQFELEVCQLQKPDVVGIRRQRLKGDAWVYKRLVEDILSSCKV
Sequence of S6K1 (P23443 whole entry, species assumed): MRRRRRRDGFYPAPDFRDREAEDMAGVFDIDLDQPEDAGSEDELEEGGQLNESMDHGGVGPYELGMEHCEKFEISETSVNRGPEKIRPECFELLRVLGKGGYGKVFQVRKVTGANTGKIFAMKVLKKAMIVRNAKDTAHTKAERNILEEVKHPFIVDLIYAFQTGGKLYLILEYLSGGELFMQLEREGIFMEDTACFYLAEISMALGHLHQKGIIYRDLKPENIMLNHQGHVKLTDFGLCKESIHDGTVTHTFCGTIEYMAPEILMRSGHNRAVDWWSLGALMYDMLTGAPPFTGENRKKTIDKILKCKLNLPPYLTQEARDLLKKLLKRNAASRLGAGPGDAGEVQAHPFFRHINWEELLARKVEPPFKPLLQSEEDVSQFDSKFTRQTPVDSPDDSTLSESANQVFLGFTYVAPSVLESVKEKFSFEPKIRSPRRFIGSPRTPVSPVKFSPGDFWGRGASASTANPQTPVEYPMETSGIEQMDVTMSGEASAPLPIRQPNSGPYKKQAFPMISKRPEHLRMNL
Sequence of AuroraA (O14965 whole entry): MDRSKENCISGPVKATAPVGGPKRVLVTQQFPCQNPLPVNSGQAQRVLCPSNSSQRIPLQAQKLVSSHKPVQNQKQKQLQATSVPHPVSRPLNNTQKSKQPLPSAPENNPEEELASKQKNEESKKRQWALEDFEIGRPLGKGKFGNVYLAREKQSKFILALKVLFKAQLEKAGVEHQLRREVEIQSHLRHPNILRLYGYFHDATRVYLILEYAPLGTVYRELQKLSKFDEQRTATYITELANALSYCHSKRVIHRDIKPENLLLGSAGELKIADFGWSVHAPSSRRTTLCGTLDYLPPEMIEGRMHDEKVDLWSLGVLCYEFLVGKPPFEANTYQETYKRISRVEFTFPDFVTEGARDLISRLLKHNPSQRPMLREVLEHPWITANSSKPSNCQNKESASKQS
Sequence of PIM1 (P11309 whole entry, species assumed): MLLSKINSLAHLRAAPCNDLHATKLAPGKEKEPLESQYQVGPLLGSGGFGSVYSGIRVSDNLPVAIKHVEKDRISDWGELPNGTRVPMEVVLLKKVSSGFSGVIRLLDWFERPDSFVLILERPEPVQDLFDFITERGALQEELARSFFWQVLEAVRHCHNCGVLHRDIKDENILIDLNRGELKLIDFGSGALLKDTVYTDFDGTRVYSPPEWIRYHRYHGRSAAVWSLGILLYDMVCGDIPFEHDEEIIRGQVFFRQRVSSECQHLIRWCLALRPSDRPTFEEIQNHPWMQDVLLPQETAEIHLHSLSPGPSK

Row | SMILES | percentage inhibition of MKK1 (MKK1) [percentage] | percentage inhibition of S6K1 (S6K1) [percentage] | percentage inhibition of PKA (PKA) [percentage] | percentage inhibition of SmMLCK (SmMLCK) [percentage] | percentage inhibition of AuroraA (AuroraA) [percentage] | percentage inhibition of AMPK(hum) (AMPK(hum)) [percentage] | percentage inhibition of MELK (MELK) [percentage] | percentage inhibition of PIM1 (PIM1) [percentage] | percentage inhibition of EPH-A2 (EPH-A2) [percentage]
1 | c1cc2[nH]nc3c2c(n1)N(C1CCC1)CCC3 [Example 22, 6-cyclobutyl-6,7,8,9-tetrahydro-2H-1,2,5,6-tetraazabenzo[cd]azulene] | 15 | 0 | 0 | 16 | 0 | 16 | 10 | 0 | 0
2 | c1cc2[nH]nc3c2c(n1)N(C1CCCC1)CCC3 [Example 23, 6-cyclopentyl-6,7,8,9-tetrahydro-2H-1,2,5,6-tetraazabenzo[cd]azulene] | 0 | 0 | 0 | 15 | 0 |  | 1 | 0 | 0
3 | c1cc2[nH]nc3c2c(n1)N(C1CCOCC1)CCC3 [Example 29, 6-(tetrahydro-2H-pyran-4-yl)-6,7,8,9-tetrahydro-2H-1,2,5,6-tetraazabenzo[cd]azulene] | 21 | 2 | 0 | 11 | 0 | 6 | 24 | 0 | 0
4 | CN1CCC(N2Cc3ccccc3-c3n[nH]c4ccnc2c34)CC1 [Example 55] | 65 | 17 | 0 | 16 | 9 | 64 | 78 | 26 | 0
5 | CC(C)n1ncc2c1CN(C1CCN(C)CC1)c1nccc3[nH]nc-2c13 [Example 68] | 31 | 0 | 0 | 9 | 13 | 32 | 72 | 77 | 0
